Test results: ChEMBL document CHEMBL1201862, “PubChem BioAssay data set” (2004)
Calls of active or inactive are those of the source.

Key:
Type in all cases: functional
[1] = molecular target: ALK tyrosine kinase receptor (Homo sapiens, UniProt Q9UM73);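 also: ALK tested as one member of a kinase panel screen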
[2] = molecular target: Proto-oncogene tyrosine-protein kinase receptor Ret (Homo sapiens, UniProt P07949);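 also: measured within a kinome-wide profiling panel, RET as the panel member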
[3] = molecular target: T1, Serine/threonine-protein kinase D3 (Homo sapiens, UniProt O94806);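 also: determined within a kinase panel screen, with PRKCN as the panel member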
T1 sequence (O94806 whole entry): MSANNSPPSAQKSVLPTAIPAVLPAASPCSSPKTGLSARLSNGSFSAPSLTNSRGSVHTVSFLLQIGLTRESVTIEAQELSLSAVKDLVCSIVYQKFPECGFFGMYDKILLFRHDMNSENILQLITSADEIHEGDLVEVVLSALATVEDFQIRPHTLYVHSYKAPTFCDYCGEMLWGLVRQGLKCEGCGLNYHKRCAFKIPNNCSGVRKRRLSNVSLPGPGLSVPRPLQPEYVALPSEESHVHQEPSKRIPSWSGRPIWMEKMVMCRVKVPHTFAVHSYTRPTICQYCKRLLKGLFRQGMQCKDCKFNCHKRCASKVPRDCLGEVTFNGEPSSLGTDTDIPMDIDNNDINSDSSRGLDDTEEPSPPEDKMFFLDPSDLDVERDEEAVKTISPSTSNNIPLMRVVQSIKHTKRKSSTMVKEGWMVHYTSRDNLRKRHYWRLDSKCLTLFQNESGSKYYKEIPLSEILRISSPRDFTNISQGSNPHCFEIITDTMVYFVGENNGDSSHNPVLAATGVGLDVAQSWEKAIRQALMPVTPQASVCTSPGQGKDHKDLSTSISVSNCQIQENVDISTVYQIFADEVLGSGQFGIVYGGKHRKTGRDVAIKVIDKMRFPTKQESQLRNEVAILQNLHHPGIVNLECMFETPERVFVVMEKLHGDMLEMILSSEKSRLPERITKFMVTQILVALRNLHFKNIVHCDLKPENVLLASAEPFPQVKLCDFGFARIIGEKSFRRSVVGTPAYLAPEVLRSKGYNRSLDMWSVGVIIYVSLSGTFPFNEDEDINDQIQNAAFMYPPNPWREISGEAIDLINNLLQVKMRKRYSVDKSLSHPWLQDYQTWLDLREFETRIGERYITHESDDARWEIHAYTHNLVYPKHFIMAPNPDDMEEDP

[4] = molecular target: Death-associated protein kinase 3 (Homo sapiens, UniProt O43293);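 also: measured as one member of a kinome-wide profiling panel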
Aurora kinase A = Aurora kinase A (Homo sapiens, UniProt O14965);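 also: value from the Navigating the Kinome kinase panel profiling, panel entry STK6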
[5] = molecular target: Tyrosine-protein kinase BTK (Homo sapiens, UniProt Q06187)
[6] = molecular target: Serine/threonine-protein kinase PAK 4 (Homo sapiens, UniProt O96013);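 also: value obtained within a kinome profiling panel in which PAK4 was one of the panel members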
[7] = molecular target: Fibroblast growth factor receptor 1 (Homo sapiens, UniProt P11362)
[8] = molecular target: Casein kinase I isoform alpha (Homo sapiens, UniProt P48729)
[9] = molecular target: Mitogen-activated protein kinase 9 (Homo sapiens, UniProt P45984);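 also: value from a kinome panel profiling assay, MAPK9 panel entry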
[10] = molecular target: Serine/threonine-protein kinase TAO1 (Homo sapiens, UniProt Q7L7X3)
[11] = molecular target: High affinity nerve growth factor receptor (Homo sapiens, UniProt P04629);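 also: NTRK1 tested as one member of a kinome-wide profiling panel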
[12] = molecular target: Mitogen-activated protein kinase kinase kinase kinase 2 (Homo sapiens, UniProt Q12851);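 also: measured as one member of a kinome-wide kinase panel, with MAP4K2 as the panel entry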
[13] = molecular target: Receptor-type tyrosine-protein kinase FLT3 (Homo sapiens, UniProt P36888);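 also: FLT3 was tested as one member of a kinome-wide kinase panel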
[14] = molecular target: Vascular endothelial growth factor receptor 2 (Homo sapiens, UniProt P35968)
[15] = molecular target: Cyclin-dependent kinase 5 (Homo sapiens, UniProt Q00535);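 also: CDK5 measured as one member of a kinase profiling panel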
[16] = molecular target: Dual specificity tyrosine-phosphorylation-regulated kinase 1B (Homo sapiens, UniProt Q9Y463); experiment: Navigating the Kinome. Panel member name: DYRK1B
[17] = molecular target: cAMP-dependent protein kinase catalytic subunit PRKX (Homo sapiens, UniProt P51817)
[18] = molecular target: Leucine-rich repeat serine/threonine-protein kinase 2 (Homo sapiens, UniProt Q5S007);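 also: value from a broad kinome-wide panel profiling study in which LRRK2 was one of the kinases tested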
[19] = molecular target: Rho-associated protein kinase 1 (Homo sapiens, UniProt Q13464);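 also: measured within a broad kinome-wide panel profiling many kinases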
[20] = molecular target: Cyclin-dependent kinase 8 (Homo sapiens, UniProt P49336); experiment: Navigating the Kinome. Panel member name: CDK8
[21] = molecular target: Cyclin-dependent kinase 7 (Homo sapiens, UniProt P50613);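 also: value comes from a kinome-wide kinase profiling panel in which CDK7 is one member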
Sequence of Cyclin-dependent kinase 7 (P50613 whole entry): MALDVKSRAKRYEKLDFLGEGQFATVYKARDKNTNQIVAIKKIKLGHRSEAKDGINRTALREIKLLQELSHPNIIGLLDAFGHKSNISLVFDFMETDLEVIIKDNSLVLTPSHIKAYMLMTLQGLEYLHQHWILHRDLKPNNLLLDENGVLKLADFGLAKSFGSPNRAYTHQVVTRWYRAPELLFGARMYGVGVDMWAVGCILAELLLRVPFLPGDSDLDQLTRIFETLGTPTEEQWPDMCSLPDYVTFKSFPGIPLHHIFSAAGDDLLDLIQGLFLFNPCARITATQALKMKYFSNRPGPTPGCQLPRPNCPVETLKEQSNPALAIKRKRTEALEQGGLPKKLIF

[22] = molecular target: Vascular endothelial growth factor receptor 1 (Homo sapiens, UniProt P17948);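 also: measured within a kinome-wide profiling panel, FLT1 as the panel member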
[23] = molecular target: Cyclin-dependent kinase 9 (Homo sapiens, UniProt P50750);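 also: value from the CDK9 entry of a kinome-spanning kinase panel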
[24] = molecular target: cAMP-dependent protein kinase catalytic subunit alpha (Homo sapiens, UniProt P17612)
[25] = molecular target: Dual specificity protein kinase CLK4 (Homo sapiens, UniProt Q9HAZ1)
[26] = molecular target: Mitogen-activated protein kinase kinase kinase kinase 4 (Homo sapiens, UniProt O95819)
[27] = molecular target: Macrophage-stimulating protein receptor (Homo sapiens, UniProt Q04912); experiment: Navigating the Kinome. Panel member name: MST1R
Sequence of Macrophage-stimulating protein receptor (Q04912 25-304 limits assumed): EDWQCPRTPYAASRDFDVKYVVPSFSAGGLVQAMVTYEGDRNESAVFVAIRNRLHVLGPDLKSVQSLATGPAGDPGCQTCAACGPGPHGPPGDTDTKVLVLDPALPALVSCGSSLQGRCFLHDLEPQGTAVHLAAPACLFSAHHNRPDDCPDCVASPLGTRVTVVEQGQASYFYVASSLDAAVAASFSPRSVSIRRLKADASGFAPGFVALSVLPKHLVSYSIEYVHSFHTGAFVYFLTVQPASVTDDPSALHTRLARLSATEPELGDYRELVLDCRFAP
Sequence of Macrophage-stimulating protein receptor (Q04912 310-1400 limits assumed): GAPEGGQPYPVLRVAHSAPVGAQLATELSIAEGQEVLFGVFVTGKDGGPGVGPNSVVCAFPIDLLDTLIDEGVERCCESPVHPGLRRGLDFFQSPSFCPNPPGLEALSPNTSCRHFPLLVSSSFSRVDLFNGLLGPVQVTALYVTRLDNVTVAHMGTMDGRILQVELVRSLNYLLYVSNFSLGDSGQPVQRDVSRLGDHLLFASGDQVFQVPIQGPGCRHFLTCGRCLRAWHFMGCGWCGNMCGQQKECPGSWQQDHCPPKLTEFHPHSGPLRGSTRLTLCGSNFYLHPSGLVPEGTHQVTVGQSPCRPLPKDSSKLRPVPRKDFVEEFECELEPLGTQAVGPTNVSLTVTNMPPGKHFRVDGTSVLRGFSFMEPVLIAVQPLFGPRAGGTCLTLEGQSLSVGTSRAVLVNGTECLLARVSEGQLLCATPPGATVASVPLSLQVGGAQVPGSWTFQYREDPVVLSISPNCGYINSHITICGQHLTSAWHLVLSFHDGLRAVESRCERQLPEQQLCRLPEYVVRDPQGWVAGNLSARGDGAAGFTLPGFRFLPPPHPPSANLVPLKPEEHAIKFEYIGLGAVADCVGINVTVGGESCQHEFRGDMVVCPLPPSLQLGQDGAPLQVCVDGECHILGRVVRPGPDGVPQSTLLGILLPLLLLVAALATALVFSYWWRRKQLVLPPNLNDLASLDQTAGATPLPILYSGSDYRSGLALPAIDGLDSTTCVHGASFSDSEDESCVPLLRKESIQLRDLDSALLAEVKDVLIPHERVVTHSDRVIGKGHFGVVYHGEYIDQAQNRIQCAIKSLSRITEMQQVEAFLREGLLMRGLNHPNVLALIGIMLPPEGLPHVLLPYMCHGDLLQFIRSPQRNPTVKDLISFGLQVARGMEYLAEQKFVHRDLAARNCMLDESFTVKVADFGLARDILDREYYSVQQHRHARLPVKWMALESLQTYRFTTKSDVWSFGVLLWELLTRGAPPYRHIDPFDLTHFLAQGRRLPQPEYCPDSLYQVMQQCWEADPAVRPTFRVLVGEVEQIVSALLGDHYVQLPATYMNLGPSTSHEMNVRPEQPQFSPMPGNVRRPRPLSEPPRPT

[28] = molecular target: Macrophage colony-stimulating factor 1 receptor (Homo sapiens, UniProt P07333);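 also: value comes from the Navigating the Kinome screening panel, CSF1R member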
[29] = molecular target: Dual specificity mitogen-activated protein kinase kinase 2 (Homo sapiens, UniProt P36507); experiment: Navigating the Kinome. Panel member name: MAP2K2
[30] = molecular target: Dual specificity tyrosine-phosphorylation-regulated kinase 1A (Homo sapiens, UniProt Q13627);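 also: measured against DYRK1A as one member of a broad kinome profiling panel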
[31] = molecular target: Calcium/calmodulin-dependent protein kinase type II subunit alpha (Homo sapiens, UniProt Q9UQM7); experiment: Navigating the Kinome. Panel member name: CAMK2A
Sequence of Calcium/calmodulin-dependent protein kinase type II subunit alpha (Q9UQM7 whole entry): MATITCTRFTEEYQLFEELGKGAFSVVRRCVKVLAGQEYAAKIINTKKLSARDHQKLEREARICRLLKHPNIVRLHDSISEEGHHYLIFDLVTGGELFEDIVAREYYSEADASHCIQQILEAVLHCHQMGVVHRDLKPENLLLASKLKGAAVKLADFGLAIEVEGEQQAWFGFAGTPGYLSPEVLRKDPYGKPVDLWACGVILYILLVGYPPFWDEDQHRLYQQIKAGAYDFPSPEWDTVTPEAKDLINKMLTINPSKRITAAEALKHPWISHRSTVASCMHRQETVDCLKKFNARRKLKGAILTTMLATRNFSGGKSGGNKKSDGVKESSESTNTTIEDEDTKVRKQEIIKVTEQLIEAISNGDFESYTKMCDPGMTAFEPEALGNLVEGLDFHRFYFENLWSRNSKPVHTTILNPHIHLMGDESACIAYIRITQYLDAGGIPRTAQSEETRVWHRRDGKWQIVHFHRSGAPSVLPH

[32] = molecular target: Leukocyte tyrosine kinase receptor (Homo sapiens, UniProt P29376); experiment: Navigating the Kinome. Panel member name: LTK
[33] = molecular target: Mitogen-activated protein kinase 14 (Homo sapiens, UniProt Q16539);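 also: part of a kinome-wide panel, MAPK14 entry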

Sequence of Proto-oncogene tyrosine-protein kinase receptor Ret (P07949 whole entry): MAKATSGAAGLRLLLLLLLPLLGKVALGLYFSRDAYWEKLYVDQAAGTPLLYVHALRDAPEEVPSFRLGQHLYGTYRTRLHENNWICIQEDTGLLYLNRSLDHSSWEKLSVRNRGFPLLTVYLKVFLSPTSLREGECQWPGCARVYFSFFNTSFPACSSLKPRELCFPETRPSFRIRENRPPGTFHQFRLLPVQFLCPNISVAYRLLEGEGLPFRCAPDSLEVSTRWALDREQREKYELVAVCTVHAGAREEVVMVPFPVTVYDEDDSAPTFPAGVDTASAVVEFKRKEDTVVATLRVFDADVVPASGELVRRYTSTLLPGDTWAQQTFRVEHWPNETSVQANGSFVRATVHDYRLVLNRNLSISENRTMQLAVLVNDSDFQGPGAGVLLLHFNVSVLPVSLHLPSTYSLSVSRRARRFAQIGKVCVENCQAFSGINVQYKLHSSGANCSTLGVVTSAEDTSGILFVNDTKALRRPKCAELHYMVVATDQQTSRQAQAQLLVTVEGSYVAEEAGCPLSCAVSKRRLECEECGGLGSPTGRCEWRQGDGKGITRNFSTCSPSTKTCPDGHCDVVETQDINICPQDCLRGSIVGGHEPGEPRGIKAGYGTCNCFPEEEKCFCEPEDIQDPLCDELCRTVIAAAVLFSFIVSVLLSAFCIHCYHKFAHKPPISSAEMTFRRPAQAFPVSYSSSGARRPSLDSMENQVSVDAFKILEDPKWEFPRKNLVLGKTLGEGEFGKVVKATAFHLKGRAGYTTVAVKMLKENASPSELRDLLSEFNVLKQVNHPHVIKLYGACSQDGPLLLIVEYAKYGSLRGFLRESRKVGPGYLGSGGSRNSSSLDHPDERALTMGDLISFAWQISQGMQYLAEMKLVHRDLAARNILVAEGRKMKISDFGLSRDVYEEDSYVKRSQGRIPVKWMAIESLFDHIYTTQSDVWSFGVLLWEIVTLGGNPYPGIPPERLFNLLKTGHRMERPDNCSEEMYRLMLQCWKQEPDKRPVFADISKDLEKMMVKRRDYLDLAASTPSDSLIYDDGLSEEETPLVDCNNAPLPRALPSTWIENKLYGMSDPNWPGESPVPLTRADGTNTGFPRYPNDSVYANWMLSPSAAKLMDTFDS
Sequence of ALK tyrosine kinase receptor (Q9UM73 whole entry): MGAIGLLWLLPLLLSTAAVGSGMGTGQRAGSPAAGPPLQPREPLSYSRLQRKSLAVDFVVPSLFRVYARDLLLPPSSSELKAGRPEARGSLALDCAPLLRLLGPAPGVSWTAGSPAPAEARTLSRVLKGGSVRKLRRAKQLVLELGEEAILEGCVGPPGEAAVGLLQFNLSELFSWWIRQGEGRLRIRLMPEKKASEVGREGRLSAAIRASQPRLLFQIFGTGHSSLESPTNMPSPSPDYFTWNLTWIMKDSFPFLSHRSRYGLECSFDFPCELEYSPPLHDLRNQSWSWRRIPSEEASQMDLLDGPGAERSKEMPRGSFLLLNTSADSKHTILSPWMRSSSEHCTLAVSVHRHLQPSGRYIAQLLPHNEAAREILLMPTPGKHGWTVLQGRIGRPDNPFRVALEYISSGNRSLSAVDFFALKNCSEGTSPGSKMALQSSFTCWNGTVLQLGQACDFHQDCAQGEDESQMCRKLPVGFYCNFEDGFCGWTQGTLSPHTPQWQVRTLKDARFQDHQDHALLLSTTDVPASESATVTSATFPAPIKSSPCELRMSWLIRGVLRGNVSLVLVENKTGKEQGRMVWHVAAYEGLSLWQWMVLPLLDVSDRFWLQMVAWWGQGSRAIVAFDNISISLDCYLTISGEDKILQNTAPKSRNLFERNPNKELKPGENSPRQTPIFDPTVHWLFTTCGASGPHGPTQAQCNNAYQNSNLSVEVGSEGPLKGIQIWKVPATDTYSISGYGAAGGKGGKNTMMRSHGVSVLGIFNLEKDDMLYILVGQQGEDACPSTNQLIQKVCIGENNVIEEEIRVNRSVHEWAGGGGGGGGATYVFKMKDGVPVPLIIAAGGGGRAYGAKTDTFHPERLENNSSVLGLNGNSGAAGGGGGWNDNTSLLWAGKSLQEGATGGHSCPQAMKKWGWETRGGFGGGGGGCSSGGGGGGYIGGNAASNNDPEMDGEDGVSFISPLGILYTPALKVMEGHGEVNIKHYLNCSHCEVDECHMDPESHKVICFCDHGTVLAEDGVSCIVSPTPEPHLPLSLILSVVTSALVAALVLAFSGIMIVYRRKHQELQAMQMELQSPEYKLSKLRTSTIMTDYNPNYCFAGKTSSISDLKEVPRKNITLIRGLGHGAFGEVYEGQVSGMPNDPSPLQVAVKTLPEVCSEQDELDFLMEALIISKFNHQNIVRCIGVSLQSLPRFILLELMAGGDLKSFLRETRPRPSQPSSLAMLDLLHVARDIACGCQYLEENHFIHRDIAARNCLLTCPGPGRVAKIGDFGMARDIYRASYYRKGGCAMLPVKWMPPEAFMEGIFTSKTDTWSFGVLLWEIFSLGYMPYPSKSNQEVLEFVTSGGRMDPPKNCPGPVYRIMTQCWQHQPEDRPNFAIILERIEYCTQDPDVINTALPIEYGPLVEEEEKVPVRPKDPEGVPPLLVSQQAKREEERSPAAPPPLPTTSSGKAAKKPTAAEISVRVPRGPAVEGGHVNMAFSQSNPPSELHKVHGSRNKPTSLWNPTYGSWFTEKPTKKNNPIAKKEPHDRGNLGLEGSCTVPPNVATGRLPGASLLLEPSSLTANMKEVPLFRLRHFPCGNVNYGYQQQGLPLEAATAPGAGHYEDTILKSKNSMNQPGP

COc1cccc(C(C)NC(=O)c2cnc(-c3ccncc3)nc2)c1 (stereo not drawn)
Ki [1]: > 6.31 µM (inactive) | Ki [2]: > 3.16 µM (inactive) | Ki [3]: > 3.98 µM (inactive) | Ki [4]: > 5.01 µM (inactive) | Ki (Aurora kinase A): > 1.58 µM (inactive) | Ki [5]: > 6.31 µM (inactive) | Ki [6]: > 5.01 µM (inactive) | Ki [7]: > 3.98 µM (inactive) | Ki [8]: > 3.98 µM (inactive) | Ki [9]: > 3.98 µM (inactive) | Ki [10]: > 6.31 µM (inactive) | Ki [11]: > 3.16 µM (inactive) | Ki [12]: > 2.51 µM (inactive) | Ki [13]: > 3.16 µM (inactive) | Ki [14]: > 2.51 µM (inactive) | Ki [15]: > 3.16 µM (inactive) | Ki [16]: > 2.51 µM (inactive) | Ki [17]: 1.26 µM (active) | Ki [18]: > 2.51 µM (inactive) | Ki [19]: 0.00398 µM (active) | Ki [20]: > 3.98 µM (inactive) | Ki [21]: > 3.98 µM (inactive) | Ki [22]: > 3.98 µM (inactive) | Ki [23]: > 1.58 µM (inactive) | Ki [24]: 0.126 µM (active) | Ki [25]: > 2.51 µM (inactive) | Ki [26]: > 5.01 µM (inactive) | Ki [27]: 0.398 µM (active) | Ki [28]: > 2.51 µM (inactive) | Ki [29]: > 3.98 µM (inactive) | Ki [30]: > 2 µM (inactive) | Ki [31]: > 7.94 µM (inactive) | Ki [32]: > 2.51 µM (inactive) | Ki [33]: > 3.98 µM (inactive)

CCCOc1cccc(C(C)NC(=O)c2ccc(-c3ccncc3F)cc2)c1 (stereo not drawn)
Ki [1]: > 6.31 µM (inactive) | Ki [2]: > 3.16 µM (inactive) | Ki [3]: > 3.98 µM (inactive) | Ki [4]: > 5.01 µM (inactive) | Ki (Aurora kinase A): > 1.58 µM (inactive) | Ki [5]: > 6.31 µM (inactive) | Ki [6]: > 5.01 µM (inactive) | Ki [7]: > 3.98 µM (inactive) | Ki [8]: > 3.98 µM (inactive) | Ki [9]: > 3.98 µM (inactive) | Ki [10]: > 6.31 µM (inactive) | Ki [11]: > 3.16 µM (inactive) | Ki [12]: > 2.51 µM (inactive) | Ki [13]: > 3.16 µM (inactive) | Ki [14]: > 2.51 µM (inactive) | Ki [15]: > 3.16 µM (inactive) | Ki [16]: > 2.51 µM (inactive) | Ki [17]: 0.501 µM (active) | Ki [18]: > 2.51 µM (inactive) | Ki [19]: 0.000794 µM (active) | Ki [20]: > 3.98 µM (inactive) | Ki [21]: > 3.98 µM (inactive) | Ki [22]: > 3.98 µM (inactive) | Ki [23]: > 1.58 µM (inactive) | Ki [24]: 1 µM (active) | Ki [25]: 0.1 µM (active) | Ki [26]: > 5.01 µM (inactive) | Ki [27]: > 3.98 µM (inactive) | Ki [28]: > 2.51 µM (inactive) | Ki [29]: > 3.98 µM (inactive) | Ki [30]: > 2 µM (inactive) | Ki [31]: > 7.94 µM (inactive) | Ki [32]: > 2.51 µM (inactive) | Ki [33]: > 3.98 µM (inactive)
